Data on 45 compounds can be found in US11512057B2, “Unsaturated hydrocarbon pyrimidine thioether compounds and preparation method and application thereof” (Zhejiang University of Technology, priority 2018, dated 2022).

Assay [1] deals with armyworm. Put plainly: Activity test of armyworm, leaf-dipping method. The format is in vivo. Conditions: after 3 days. Here is the method:
A certain amount of the original drug was weighed by an analytical balance (0.0001 g), and dissolved in DMF containing 1% Tween-80 emulsifier to prepare a 1% mother liquor, which was then diluted with distilled water for later use.
The insecticidal efficacy was evaluated by a leaf-dipping method with the armyworm as a target and a spray method with Tetranychus cinnabarinus and Aphis craccivora Koch as a target.
Leaf-dipping method: the target for the test was the armyworm, and corn leaves in an appropriate amount were fully infiltrated in the prepared liquid, then dried naturally, placed in culture dishes with filter papers, inoculated with 3rd instar larvae of the armyworm at 10 heads/dish, and placed in an observation room and cultured at 24˜27° C. the results were investigated after 3 days. A brush was used to touch the insect bodies, and the unresponsive were regarded as dead insects.

Assay [2] relates to powdery mildew of cucumber. Put plainly: Prevention experiment of powdery mildew of cucumber, living pot assay. The format is in vivo. As to conditions: 200 ppm; cucumber seedlings, about 10 days. Here is the method: The living pot assay method was adopted, that is, the sample of the test compound was dissolved with a small amount of DMF solvent (the kind of solvent such as acetone, methanol, DMF, etc., is selected according to the solvency of the sample, and the volume ratio of the solvent amount to the spray amount is equal to or less than 0.05), diluted with water containing 0.1% Tween 80, and formulated into the test solution with a desired concentration. Cucumber seedlings at leaf period with the same growth period was sprayed evenly with the prepared agent, and aired. Each concentration was one treatment, each treatment was repeated 3 times, a control agent and a water of blank control were set separately. The fresh powdery mildew spores on the leaves of cucumbers were washed and filtered with double gauze to prepare a suspension with a concentration of about 100,000 spores/mL. The samples were inoculated by spraying, the inoculated samples were moved into artificial climate, and relative humidity was maintained at 60-70%, the temperature was maintained at 23° C., after about 10 days, grading investigation was carried out according to the morbidity of the blank control, control effect was calculated according to disease index.

The structures appear in SMILES notation.

As to `CCCc1cc(OCc2ccccc2/C(=N\OC)C(=O)OC)nc(SCCC=C(F)F)n1` [Compound 261], the “lethal rate on armyworm larvae” value in assay [1] (500 mg/L, 3rd instar larvae) stood at 100%.

Regarding `CO/N=C(/C(=O)OC)c1ccccc1COc1cc(C2CC2)nc(SC/C=C/Cl)n1` [Compound 199], the “lethal rate on armyworm larvae” value in assay [1] (500 mg/L, 3rd instar larvae) is recorded as 100%. Further, in assay [2], the “effect of preventing powdery mildew” value is 100%. Regarding `CO/C=C(/C(=O)OC)c1ccccc1COc1cc(C(F)(F)F)nc(SC/C=C/Cl)n1` [Compound 51], the “lethal rate on armyworm larvae” value in assay [1] (500 mg/L, 3rd instar larvae) is 100%. The “effect of preventing powdery mildew” value in assay [2] amounted to 100%. As to `C=CCSc1nc(C)cc(OCc2ccccc2/C(=C\OC)C(=O)OC)n1` [Compound 1], in assay [2], the “effect of preventing powdery mildew” value was determined as 100%. With `C=CCSc1nc(OCc2ccccc2/C(=N\OC)C(=O)OC)cc(C(F)F)n1` [Compound 146], in assay [2], the “effect of preventing powdery mildew” value stood at 100%.

With `CCCc1cc(OCc2ccccc2N(OC)C(=O)OC)nc(SCC=C(Cl)Cl)n1` [Compound 357], the “lethal rate on armyworm larvae” value in assay [1] (500 mg/L, 3rd instar larvae) turned out to be 100%. With `CCCc1cc(OCc2ccccc2/C(=N\OC)C(=O)OC)nc(SCC=C(Cl)Cl)n1` [Compound 213], in assay [1] (500 mg/L, 3rd instar larvae), the “lethal rate on armyworm larvae” value is 100%. With `COC(=O)N(OC)c1ccccc1COc1cc(C2CC2)nc(SCC=C(Cl)Cl)n1` [Compound 359], the “lethal rate on armyworm larvae” value in assay [1] (500 mg/L, 3rd instar larvae) was found to be 100%. With `CO/C=C(/C(=O)OC)c1ccccc1COc1cc(C(F)F)nc(SC/C=C/Cl)n1` [Compound 50], the “effect of preventing powdery mildew” value in assay [2] is listed as 100%. As to `CCCCc1c(C)nc(SCCC=C(F)F)nc1OCc1ccccc1/C(=C\OC)C(=O)OC` [Compound 128], in assay [1] (500 mg/L, 3rd instar larvae), the “lethal rate on armyworm larvae” value is given as 100%. `CCc1cc(OCc2ccccc2N(OC)C(=O)OC)nc(SCC=C(Cl)Cl)n1` [Compound 356]: in assay [1] (500 mg/L, 3rd instar larvae), the “lethal rate on armyworm larvae” value amounted to 100%. As for `CO/C=C(/C(=O)OC)c1ccccc1COc1cc(C(F)F)nc(SCCC=C(F)F)n1` [Compound 114], the “effect of preventing powdery mildew” value in assay [2] was 100%. For the compound `CO/N=C(/C(=O)OC)c1ccccc1COc1cc(C(F)F)nc(SC/C=C/Cl)n1` [Compound 194], in assay [1] (500 mg/L, 3rd instar larvae), the “lethal rate on armyworm larvae” value stood at 100%. Further, the “effect of preventing powdery mildew” value in assay [2] is 100%.

Turning to `CO/N=C(/C(=O)OC)c1ccccc1COc1cc(C(C)C)nc(SCC=C(Cl)Cl)n1` [Compound 214], the “lethal rate on armyworm larvae” value in assay [1] (500 mg/L, 3rd instar larvae) amounted to 100%. On to `CO/N=C(/C(=O)OC)c1ccccc1COc1cc(C)nc(SC/C=C/Cl)n1` [Compound 193], for which, in assay [1] (500 mg/L, 3rd instar larvae), the “lethal rate on armyworm larvae” value worked out at 100%. Besides, the “effect of preventing powdery mildew” value in assay [2] was found to be 100%. For `CCc1cc(OCc2ccccc2C(=NOC)C(=O)NC)nc(SCCC=C(F)F)n1` [Compound 549], the “lethal rate on armyworm larvae” value in assay [1] (500 mg/L, 3rd instar larvae) worked out at 100%. As for `COC(=O)N(OC)c1ccccc1COc1cc(C(C)C)nc(SCCC=C(F)F)n1` [Compound 406], the “lethal rate on armyworm larvae” value in assay [1] (500 mg/L, 3rd instar larvae) was determined as 100%. In the case of `CCc1cc(OCc2ccccc2/C(=C\OC)C(=O)OC)nc(SCC=C(Cl)Cl)n1` [Compound 68], in assay [1] (100 mg/L), the “lethal rate on armyworm larvae” value was “more than 80%”. Turning to `C=C(Cl)CSc1nc(OCc2ccccc2/C(=N\OC)C(=O)OC)cc(C(F)(F)F)n1` [Compound 179], the “lethal rate on armyworm larvae” value in assay [1] (500 mg/L, 3rd instar larvae) turned out to be 100%. The “effect of preventing powdery mildew” value in assay [2] was found to be 100%.

Regarding `C=C(Cl)CSc1nc(CC)cc(OCc2ccccc2/C(=C\OC)C(=O)OC)n1` [Compound 36], the “lethal rate on armyworm larvae” value in assay [1] (500 mg/L, 3rd instar larvae) stood at 100%. Also, the “effect of preventing powdery mildew” value in assay [2] turned out to be 100%. Turning to `COC(=O)N(OC)c1ccccc1COc1cc(C)nc(SC/C=C/Cl)n1` [Compound 337], the “lethal rate on armyworm larvae” value in assay [1] (500 mg/L, 3rd instar larvae) worked out at 100%.

In the case of `CO/N=C(/C(=O)OC)c1ccccc1COc1cc(C(F)(F)F)nc(SCC=C(Cl)Cl)n1` [Compound 211], in assay [1] (500 mg/L, 3rd instar larvae), the “lethal rate on armyworm larvae” value was found to be 100%. Take `CO/C=C(/C(=O)OC)c1ccccc1COc1cc(C2CC2)nc(SCCC=C(F)F)n1` [Compound 119]: in assay [1] (500 mg/L, 3rd instar larvae), the “lethal rate on armyworm larvae” value turned out to be 100%. Same read-out and setting: to `CCc1cc(OCc2ccccc2/C(=N\OC)C(=O)OC)nc(SCCC=C(F)F)n1` [Compound 260] belongs 100%; to `CCc1cc(OCc2ccccc2/C(=C\OC)C(=O)OC)nc(SCCC=C(F)F)n1` [Compound 116], 100%.

In the case of `C=C(Cl)CSc1nc(C)cc(OCc2ccccc2/C(=N\OC)C(=O)OC)n1` [Compound 177], the “effect of preventing powdery mildew” value in assay [2] is 100%. `COC(=O)N(OC)c1ccccc1COc1cc(C(F)F)nc(SCC=C(Cl)Cl)n1` [Compound 354]: the “lethal rate on armyworm larvae” value in assay [1] (500 mg/L, 3rd instar larvae) was found to be 100%. Take `CO/C=C(/C(=O)OC)c1ccccc1COc1cc(C)nc(SCCC=C(F)F)n1` [Compound 113]: in assay [1] (500 mg/L, 3rd instar larvae), the “lethal rate on armyworm larvae” value was found to be 100%. The “effect of preventing powdery mildew” value in assay [2] is reported as 100%. For `CCCc1cc(OCc2ccccc2/C(=C\OC)C(=O)OC)nc(SCCC=C(F)F)n1` [Compound 117], in assay [1] (500 mg/L, 3rd instar larvae), the “lethal rate on armyworm larvae” value came out at 100%. Turning to `CO/N=C(/C(=O)OC)c1ccccc1COc1nc(SCCC=C(F)F)nc(C)c1C` [Compound 271], the “lethal rate on armyworm larvae” value in assay [1] (500 mg/L, 3rd instar larvae) is on record as 100%. The “effect of preventing powdery mildew” value in assay [2] was 100%.

Turning to `CO/C=C(/C(=O)OC)c1ccccc1COc1cc(C2CC2)nc(SC/C=C/Cl)n1` [Compound 55], the “effect of preventing powdery mildew” value in assay [2] came out at 100%. Consider `C=C(Cl)CSc1nc(C)c(C)c(OCc2ccccc2/C(=N\OC)C(=O)OC)n1` [Compound 191], for which the “effect of preventing powdery mildew” value in assay [2] is given as 100%. Regarding `C=CCSc1nc(OCc2ccccc2/C(=N\OC)C(=O)OC)cc(C(F)(F)F)n1` [Compound 147], in assay [1] (500 mg/L, 3rd instar larvae), the “lethal rate on armyworm larvae” value is given as 100%.

Take `C=C(Cl)CSc1nc(OCc2ccccc2/C(=C\OC)C(=O)OC)cc(C(F)(F)F)n1` [Compound 35]: the “lethal rate on armyworm larvae” value in assay [1] (500 mg/L, 3rd instar larvae) was determined as 100%. For the same compound, the “effect of preventing powdery mildew” value in assay [2] was 100%. With `COC(=O)N(OC)c1ccccc1COc1cc(C(F)F)nc(SC/C=C/Cl)n1` [Compound 338], in assay [1] (500 mg/L, 3rd instar larvae), the “lethal rate on armyworm larvae” value is 100%. As for `C=C(Cl)CSc1nc(CC)cc(OCc2ccccc2/C(=N\OC)C(=O)OC)n1` [Compound 180], the “lethal rate on armyworm larvae” value in assay [1] (500 mg/L, 3rd instar larvae) amounted to 100%. Further, the “effect of preventing powdery mildew” value in assay [2] is given as 100%. For `C=CCSc1nc(C)cc(OCc2ccccc2/C(=N\OC)C(=O)OC)n1` [Compound 145], the “lethal rate on armyworm larvae” value in assay [1] (500 mg/L, 3rd instar larvae) worked out at 100%. For `CO/C=C(/C(=O)OC)c1ccccc1COc1cc(C)nc(SC/C=C/Cl)n1` [Compound 49], the “effect of preventing powdery mildew” value in assay [2] was found to be 100%. As for `CO/C=C(/C(=O)OC)c1ccccc1COc1nc(SCCC=C(F)F)nc(C)c1C` [Compound 127], the “effect of preventing powdery mildew” value in assay [2] amounted to 100%. Take `C=C(Cl)CSc1nc(OCc2ccccc2/C(=C\OC)C(=O)OC)cc(C(F)F)n1` [Compound 34]: the “lethal rate on armyworm larvae” value in assay [1] (500 mg/L, 3rd instar larvae) came out at 100%. In addition, in assay [2], the “effect of preventing powdery mildew” value came out at 100%. In the case of `CO/C=C(/C(=O)OC)c1ccccc1COc1cc(C(C)C)nc(SCCC=C(F)F)n1` [Compound 118], the “lethal rate on armyworm larvae” value in assay [1] (500 mg/L, 3rd instar larvae) stood at 100%. Consider `CCCc1cc(OCc2ccccc2N(OC)C(=O)OC)nc(SCCC=C(F)F)n1` [Compound 405], for which, in assay [1] (500 mg/L, 3rd instar larvae), the “lethal rate on armyworm larvae” value is on record as 100%. With `COC(=O)N(OC)c1ccccc1COc1cc(C)nc(SCC=C(Cl)Cl)n1` [Compound 353], the “lethal rate on armyworm larvae” value in assay [1] (500 mg/L, 3rd instar larvae) was determined as 100%. For `C=CCSc1nc(OCc2ccccc2/C(=C\OC)C(=O)OC)c(Cl)c(C(F)F)n1` [Compound 9], in assay [1] (500 mg/L, 3rd instar larvae), the “lethal rate on armyworm larvae” value is recorded as 100%. For the same compound, the “effect of preventing powdery mildew” value in assay [2] is 100%.

For the compound `CO/N=C(/C(=O)OC)c1ccccc1COc1cc(C2CC2)nc(SCC=C(Cl)Cl)n1` [Compound 215], in assay [1] (500 mg/L, 3rd instar larvae), the “lethal rate on armyworm larvae” value is 100%.
